#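 Interpolation was linear, between the two tested concentrations surrounding the appropriate level; five concentrations were tested over 48 hours in 96-well plates. TGI: concentration producing complete growth inhibition.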
# Key:
# Test in all cases: NCI-60 cell line screen, 48 h
# 786-0 renal = tested on: 786-0 renal
# A498 renal = tested on: A498 renal
# A549 NSCLC = tested on: A549 NSCLC
# ACHN renal = tested on: ACHN renal
# BT-549 breast = tested on: BT-549 breast
# CAKI-1 renal = tested on: CAKI-1 renal
# CCRF-CEM leukemia = tested on: CCRF-CEM leukemia
# COLO 205 colon = tested on: COLO 205 colon
# EKVX NSCLC = tested on: EKVX NSCLC
# HCC-2998 colon = tested on: HCC-2998 colon
# HCT-116 colon = tested on: HCT-116 colon
# HCT-15 colon = tested on: HCT-15 colon
# HL-60(TB) leukemia = tested on: HL-60(TB) leukemia
# HOP-62 NSCLC = tested on: HOP-62 NSCLC
# HOP-92 NSCLC = tested on: HOP-92 NSCLC
# HS 578T breast = tested on: HS 578T breast
# HT29 colon = tested on: HT29 colon
# IGROV1 ovarian = tested on: IGROV1 ovarian
# K-562 leukemia = tested on: K-562 leukemia
# KM12 colon = tested on: KM12 colon
# LOX IMVI melanoma = tested on: LOX IMVI melanoma
# MALME-3M melanoma = tested on: MALME-3M melanoma
# MCF7 breast = tested on: MCF7 breast
# MDA-MB-231 breast = tested on: MDA-MB-231 breast
# MDA-MB-435 = tested on: MDA-MB-435
# MOLT-4 leukemia = tested on: MOLT-4 leukemia
# NCI-H226 lung = tested on: NCI-H226 lung
# NCI-H23 lung = tested on: NCI-H23 lung
# NCI-H460 lung = tested on: NCI-H460 lung
# NCI-H522 lung = tested on: NCI-H522 lung
# NCI/ADR-RES ovarian = tested on: NCI/ADR-RES ovarian
# OVCAR-4 ovarian = tested on: OVCAR-4 ovarian
# OVCAR-5 ovarian = tested on: OVCAR-5 ovarian
# OVCAR-8 ovarian = tested on: OVCAR-8 ovarian
# PC-3 prostate = tested on: PC-3 prostate
# SF-268 CNS = tested on: SF-268 CNS
# SF-295 CNS = tested on: SF-295 CNS
# SF-539 CNS = tested on: SF-539 CNS
# SK-MEL-2 melanoma = tested on: SK-MEL-2 melanoma
# SK-MEL-28 melanoma = tested on: SK-MEL-28 melanoma
# SK-MEL-5 melanoma = tested on: SK-MEL-5 melanoma
# SK-OV-3 ovarian = tested on: SK-OV-3 ovarian
# SN12C renal = tested on: SN12C renal
# SNB-19 CNS = tested on: SNB-19 CNS
# SNB-75 CNS = tested on: SNB-75 CNS
# SR leukemia = tested on: SR leukemia
# SW-620 colon = tested on: SW-620 colon
# T-47D breast = tested on: T-47D breast
# TK-10 renal = tested on: TK-10 renal
# U251 CNS = tested on: U251 CNS
# UACC-257 melanoma = tested on: UACC-257 melanoma
# UO-31 renal = tested on: UO-31 renal
# DU-145 prostate = tested on: DU-145 prostate
# M14 melanoma = tested on: M14 melanoma
# OVCAR-3 ovarian = tested on: OVCAR-3 ovarian
# RPMI-8226 leukemia = tested on: RPMI-8226 leukemia
# RXF 393 renal = tested on: RXF 393 renal
# UACC-62 melanoma = tested on: UACC-62 melanoma
compound,measurement,setting,value
C/C(=N\Nc1nc2ccccc2o1)c1ccncn1,TGI,786-0 renal,18.3 µM
same,TGI,A498 renal,10.7 µM
same,TGI,A549 NSCLC,> 32.7 µM
same,TGI,ACHN renal,> 100 µM
same,TGI,BT-549 breast,> 100 µM
same,TGI,CAKI-1 renal,42.6 µM
same,TGI,CCRF-CEM leukemia,> 100 µM
same,TGI,COLO 205 colon,> 51.3 µM
same,TGI,EKVX NSCLC,> 100 µM
same,TGI,HCC-2998 colon,29 µM
same,TGI,HCT-116 colon,> 33.6 µM
same,TGI,HCT-15 colon,> 58.1 µM
same,TGI,HL-60(TB) leukemia,0.0585 µM
same,TGI,HOP-62 NSCLC,> 68.7 µM
same,TGI,HOP-92 NSCLC,6.05 µM
same,TGI,HS 578T breast,27.1 µM
same,TGI,HT29 colon,> 35.6 µM
same,TGI,IGROV1 ovarian,30.9 µM
same,TGI,K-562 leukemia,> 100 µM
same,TGI,KM12 colon,11.6 µM
same,TGI,LOX IMVI melanoma,> 37.1 µM
same,TGI,MALME-3M melanoma,97.5 µM
same,TGI,MCF7 breast,> 43.8 µM
same,TGI,MDA-MB-231 breast,97.1 µM
same,TGI,MDA-MB-435,> 75.8 µM
same,TGI,MOLT-4 leukemia,> 100 µM
same,TGI,NCI-H226 lung,> 100 µM
same,TGI,NCI-H23 lung,> 47.7 µM
same,TGI,NCI-H460 lung,> 42.6 µM
same,TGI,NCI-H522 lung,> 32.7 µM
same,TGI,NCI/ADR-RES ovarian,0.84 µM
same,TGI,OVCAR-4 ovarian,> 100 µM
same,TGI,OVCAR-5 ovarian,> 100 µM
same,TGI,OVCAR-8 ovarian,35.7 µM
same,TGI,PC-3 prostate,36.6 µM
same,TGI,SF-268 CNS,> 53.8 µM
same,TGI,SF-295 CNS,> 100 µM
same,TGI,SF-539 CNS,> 100 µM
same,TGI,SK-MEL-2 melanoma,> 25.8 µM
same,TGI,SK-MEL-28 melanoma,> 100 µM
same,TGI,SK-MEL-5 melanoma,> 81.6 µM
same,TGI,SK-OV-3 ovarian,17.4 µM
same,TGI,SN12C renal,> 100 µM
same,TGI,SNB-19 CNS,> 100 µM
same,TGI,SNB-75 CNS,> 48.2 µM
same,TGI,SR leukemia,> 100 µM
same,TGI,SW-620 colon,> 39.3 µM
same,TGI,T-47D breast,23.2 µM
same,TGI,TK-10 renal,> 63.4 µM
same,TGI,U251 CNS,> 36.4 µM
same,TGI,UACC-257 melanoma,> 27.5 µM
same,TGI,UO-31 renal,75.5 µM
CCCCP(CCCC)(CCCC)=C(C(=O)OC)C(C(=O)OC)=C1SC(C(=O)OC)=C(C(=O)OC)S1,TGI,786-0 renal,40 µM
same,TGI,A549 NSCLC,40.1 µM
same,TGI,ACHN renal,54.3 µM
same,TGI,BT-549 breast,30.9 µM
same,TGI,COLO 205 colon,45.5 µM
same,TGI,DU-145 prostate,> 100 µM
same,TGI,EKVX NSCLC,68.5 µM
same,TGI,HCT-116 colon,31.9 µM
same,TGI,HCT-15 colon,96 µM
same,TGI,HOP-62 NSCLC,49.3 µM
same,TGI,HS 578T breast,43.7 µM
same,TGI,HT29 colon,30.7 µM
same,TGI,IGROV1 ovarian,23.8 µM
same,TGI,LOX IMVI melanoma,28.5 µM
same,TGI,M14 melanoma,30.2 µM
same,TGI,MALME-3M melanoma,41.1 µM
same,TGI,MCF7 breast,30.9 µM
same,TGI,MDA-MB-231 breast,35.7 µM
same,TGI,MDA-MB-435,28.1 µM
same,TGI,MOLT-4 leukemia,44.5 µM
same,TGI,NCI-H226 lung,45 µM
same,TGI,NCI-H23 lung,45.4 µM
same,TGI,NCI-H460 lung,35.9 µM
same,TGI,NCI-H522 lung,49.6 µM
same,TGI,OVCAR-3 ovarian,53.1 µM
same,TGI,OVCAR-4 ovarian,52.5 µM
same,TGI,OVCAR-5 ovarian,52.5 µM
same,TGI,OVCAR-8 ovarian,48.8 µM
same,TGI,PC-3 prostate,51 µM
same,TGI,RPMI-8226 leukemia,> 100 µM
same,TGI,RXF 393 renal,22.8 µM
same,TGI,SF-268 CNS,> 100 µM
same,TGI,SF-295 CNS,36.3 µM
same,TGI,SK-MEL-2 melanoma,63.1 µM
same,TGI,SK-MEL-28 melanoma,29.8 µM
same,TGI,SK-MEL-5 melanoma,29.7 µM
same,TGI,SK-OV-3 ovarian,75.8 µM
same,TGI,SN12C renal,29.8 µM
same,TGI,SNB-19 CNS,49 µM
same,TGI,SNB-75 CNS,45.4 µM
same,TGI,SR leukemia,> 100 µM
same,TGI,SW-620 colon,87 µM
same,TGI,T-47D breast,43.7 µM
same,TGI,TK-10 renal,> 100 µM
same,TGI,U251 CNS,29.5 µM
same,TGI,UACC-257 melanoma,37.3 µM
same,TGI,UACC-62 melanoma,27.1 µM
same,TGI,UO-31 renal,51.4 µM
CC1=CC2C(C(C)C)CC1C1C(=O)OC(=O)C21 (stereo unspecified),TGI,786-0 renal,> 100 µM
same,TGI,A498 renal,> 100 µM
same,TGI,A549 NSCLC,> 100 µM
same,TGI,ACHN renal,> 100 µM
same,TGI,BT-549 breast,> 100 µM
same,TGI,COLO 205 colon,> 100 µM
same,TGI,DU-145 prostate,> 100 µM
same,TGI,EKVX NSCLC,> 100 µM
same,TGI,HCC-2998 colon,> 100 µM
same,TGI,HCT-116 colon,> 100 µM
same,TGI,HCT-15 colon,> 100 µM
same,TGI,HL-60(TB) leukemia,77.8 µM
same,TGI,HOP-62 NSCLC,> 100 µM
same,TGI,HOP-92 NSCLC,> 100 µM
same,TGI,HS 578T breast,> 100 µM
same,TGI,HT29 colon,> 100 µM
same,TGI,IGROV1 ovarian,> 100 µM
same,TGI,K-562 leukemia,> 100 µM
same,TGI,LOX IMVI melanoma,> 100 µM
same,TGI,M14 melanoma,> 100 µM
same,TGI,MALME-3M melanoma,> 100 µM
same,TGI,MCF7 breast,> 100 µM
same,TGI,MDA-MB-231 breast,> 100 µM
same,TGI,MDA-MB-435,> 100 µM
same,TGI,NCI-H226 lung,> 100 µM
same,TGI,NCI-H23 lung,> 100 µM
same,TGI,NCI-H460 lung,> 100 µM
same,TGI,NCI-H522 lung,> 100 µM
same,TGI,NCI/ADR-RES ovarian,> 100 µM
same,TGI,OVCAR-3 ovarian,58.8 µM
same,TGI,OVCAR-4 ovarian,> 100 µM
same,TGI,OVCAR-5 ovarian,> 100 µM
same,TGI,OVCAR-8 ovarian,> 100 µM
same,TGI,PC-3 prostate,> 100 µM
same,TGI,RXF 393 renal,> 100 µM
same,TGI,SF-268 CNS,> 100 µM
same,TGI,SF-539 CNS,> 100 µM
same,TGI,SK-MEL-2 melanoma,> 100 µM
same,TGI,SK-MEL-28 melanoma,> 100 µM
same,TGI,SK-MEL-5 melanoma,> 100 µM
same,TGI,SK-OV-3 ovarian,> 100 µM
same,TGI,SN12C renal,> 100 µM
same,TGI,SNB-19 CNS,> 100 µM
same,TGI,SNB-75 CNS,> 100 µM
same,TGI,SW-620 colon,> 100 µM
same,TGI,T-47D breast,> 100 µM
same,TGI,TK-10 renal,> 100 µM
same,TGI,U251 CNS,> 100 µM
same,TGI,UACC-257 melanoma,> 100 µM
same,TGI,UACC-62 melanoma,> 100 µM
same,TGI,UO-31 renal,> 100 µM

# Reference: PubChem BioAssay (NCI)
